Tests used:
foxtail, green = assay: Test E preemergence; type: in vivo, Setaria viridis; settings: scale 0 to 100
Excerpt: (§1) Seeds of plant species selected from corn (Zea mays), soybean (Glycine max), lambsquarters (Chenopodium album), poinsettia, wild (wild poinsettia, Euphorbia heterophylla), pigweed, palmer (palmer pigweed, Amaranthus palmeri), waterhemp (common waterhemp, Amaranthus rudis), surinam grass (Brachiaria decumbens), crabgrass, large (large crabgrass, Digitaria sanguinalis), crabgrass, Brazilian (Brazilian crabgrass, Digitaria horizontalis), panicum, fall (fall panicum, Panicum dichotomiflorum), foxtail, giant (giant foxtail, Setaria faberii), foxtail, green (green foxtail, Setaria viridis), goosegrass (Eleusine indica), johnsongrass (Sorghum halepense), ragweed (common ragweed, Ambrosia elatior), barnyardgrass (Echinochloa crus-galli), sandbur (southern sandbur, Cenchrus echinatus), arrowleaf sida (Sida rhombifolia), ryegrass, Italian (Italian ryegrass, Lolium multiflorum), dayflower, VA (Virginia dayflower, Commelina virginica), field bindweed (Convolvulus arvensis), cocklebur (common cocklebur, Xanthium strumarium), morningglory (Ipomoea coccinea), nightshade (eastern black nightshade, Solanum ptycanthum), kochia (Kochia scoparia), nutsedge, yellow (yellow nutsedge, Cyperus esculentus), smartweed (ladysthumb smartweed, Polygonum persicaria), velvetleaf (Abutilon theophrasti), horseweed (Conyza canadensis), and beggarticks (hairy beggarticks, Bidens pilosa), were planted into a silt loam soil and treated preemergence with test chemicals formulated in a non-phytotoxic solvent mixture which included a surfactant.
(§2) At the same time, plants from these crop and weed species and also waterhemp_RES1, (ALS & Triazine resistant common waterhemp, Amaranthus rudis), and waterhemp_RES2, (ALS & HPPD resistant common waterhemp, Amaranthus rudis) were planted in pots containing Sunshine Redi-Earth® planting medium comprising spaghnum peat moss, vermiculite, starter nutrients and dolomitic limestone were treated with postemergence applications of test chemicals formulated in the same manner. Plants ranged in height from 2 to 18 cm for postemergence treatments (1- to 4-leaf stage). Treated plants and controls were maintained in a greenhouse for 14 to 21 d, after which time all species were compared to controls and visually evaluated. Plant response ratings, summarized in Table E, are based on a scale of 0 to 100 where 0 is no effect and 100 is complete control. A dash (-) response means no test result.

goosegrass = assay: Test E preemergence; type: in vivo, Eleusine indica; settings: scale 0 to 100
Excerpt: as §1, §2

dayflower, VA = assay: Test E preemergence; type: in vivo, Commelina virginica; settings: scale 0 to 100
Excerpt: as §1, §2

morningglory = assay: Test E preemergence; type: in vivo, Ipomoea coccinea; settings: scale 0 to 100
Excerpt: as §1, §2

crabgrass, Brazilian [1] = assay: Test E preemergence; type: in vivo, Digitaria horizontalis; settings: Brazil, scale 0 to 100
Excerpt: as §1, §2

johnsongrass = assay: Test E preemergence; type: in vivo, Sorghum halepense; settings: scale 0 to 100
Excerpt: as §1, §2

panicum, fall [2] = assay: Test E preemergence; type: in vivo, Panicum dichotomiflorum; settings: scale 0 to 100
Excerpt: as §1, §2

poinsettia, wild = assay: Test E preemergence; type: in vivo, Euphorbia heterophylla; settings: scale 0 to 100
Excerpt: as §1, §2

arrowleaf sida [3] = assay: Test E preemergence; type: in vivo, Sida rhombifolia; settings: scale 0 to 100
Excerpt: as §1, §2

pigweed, palmer = assay: Test E preemergence; type: in vivo, Amaranthus palmeri; settings: scale 0 to 100
Excerpt: as §1, §2

corn [4] = assay: Test E preemergence; type: in vivo, Zea mays; settings: scale 0 to 100
Excerpt: as §1, §2

nightshade = assay: Test E preemergence; type: in vivo, Solanum ptycanthum; settings: scale 0 to 100
Excerpt: as §1, §2

crabgrass, large = assay: Test E preemergence; type: in vivo, Digitaria sanguinalis; settings: scale 0 to 100
Excerpt: as §1, §2

crabgrass, Brazilian [5] = assay: Test E postemergence; type: in vivo, Digitaria horizontalis; settings: Brazil, scale 0 to 100
Excerpt: as §1, §2

corn [6] = assay: Test E postemergence; type: in vivo, Zea mays; settings: scale 0 to 100
Excerpt: as §1, §2

panicum, fall [7] = assay: Test E postemergence; type: in vivo, Panicum dichotomiflorum; settings: scale 0 to 100
Excerpt: as §1, §2

soybean = assay: Test E postemergence; type: in vivo, Glycine max; settings: scale 0 to 100
Excerpt: as §1, §2

sandbur = assay: Test E postemergence; type: in vivo, Cenchrus echinatus; settings: scale 0 to 100
Excerpt: as §1, §2

arrowleaf sida [8] = assay: Test E postemergence; type: in vivo, Sida rhombifolia; settings: scale 0 to 100
Excerpt: as §1, §2

field bindweed = assay: Test E postemergence; type: in vivo, Convolvulus arvensis; settings: scale 0 to 100
Excerpt: as §1, §2

CCOc1nc(-c2ccc(F)cc2)nn1Cc1ccnc(C(F)(F)F)c1 [Compound 8, 4-[[5-ethoxy-3-(4-fluorophenyl)-1H-1,2,4-triazol-1-yl]methyl]-2-(trifluoromethyl)pyridine]
Plant response rating (foxtail, green; 62 g ai/ha): 100
Plant response rating (foxtail, green; 125 g ai/ha): 100
Plant response rating (goosegrass; 62 g ai/ha): 100
Plant response rating (goosegrass; 125 g ai/ha): 100
Plant response rating (dayflower, VA; 62 g ai/ha): 65
Plant response rating (dayflower, VA; 125 g ai/ha): 95
Plant response rating (morningglory; 62 g ai/ha): 70
Plant response rating (morningglory; 125 g ai/ha): 100
Plant response rating (crabgrass, Brazilian [1]; 62 g ai/ha): 100
Plant response rating (crabgrass, Brazilian [1]; 125 g ai/ha): 100
Plant response rating (johnsongrass; 62 g ai/ha): 65
Plant response rating (johnsongrass; 125 g ai/ha): 100
Plant response rating (panicum, fall [2]; 62 g ai/ha): 100
Plant response rating (panicum, fall [2]; 125 g ai/ha): 100
Plant response rating (poinsettia, wild; 62 g ai/ha): 70
Plant response rating (poinsettia, wild; 125 g ai/ha): 95
Plant response rating (arrowleaf sida [3]; 62 g ai/ha): 65
Plant response rating (arrowleaf sida [3]; 125 g ai/ha): 98
Plant response rating (pigweed, palmer; 62 g ai/ha): 100
Plant response rating (pigweed, palmer; 125 g ai/ha): 100
Plant response rating (corn [4]; 62 g ai/ha): 25
Plant response rating (corn [4]; 125 g ai/ha): 65
Plant response rating (nightshade; 62 g ai/ha): 98
Plant response rating (nightshade; 125 g ai/ha): 100
Plant response rating (crabgrass, large; 62 g ai/ha): 100
Plant response rating (crabgrass, large; 125 g ai/ha): 100

CCc1nc(-c2ccc(C(F)(F)F)cc2)nn1Cc1ccnc(C(F)(F)F)c1 [Compound 1, 4-[[5-ethyl-3-[4-(trifluoromethyl)phenyl]-1H-1,2,4-triazol-1-yl]methyl]-2-(trifluoromethyl)pyridine]
Plant response rating (crabgrass, Brazilian [5]; 16 g ai/ha): 20
Plant response rating (crabgrass, Brazilian [5]; 31 g ai/ha): 20
Plant response rating (crabgrass, Brazilian [5]; 62 g ai/ha): 30
Plant response rating (crabgrass, Brazilian [5]; 125 g ai/ha): 30
Plant response rating (crabgrass, Brazilian [5]; 250 g ai/ha): 40
Plant response rating (corn [6]; 16 g ai/ha): 5
Plant response rating (corn [6]; 31 g ai/ha): 5
Plant response rating (corn [6]; 62 g ai/ha): 5
Plant response rating (corn [6]; 125 g ai/ha): 10
Plant response rating (corn [6]; 250 g ai/ha): 10
Plant response rating (foxtail, green; 16 g ai/ha): 20
Plant response rating (foxtail, green; 31 g ai/ha): 50
Plant response rating (foxtail, green; 62 g ai/ha): 50
Plant response rating (foxtail, green; 125 g ai/ha): 80
Plant response rating (foxtail, green; 250 g ai/ha): 100
Plant response rating (goosegrass; 16 g ai/ha): 50
Plant response rating (goosegrass; 31 g ai/ha): 60
Plant response rating (goosegrass; 62 g ai/ha): 60
Plant response rating (goosegrass; 125 g ai/ha): 75
Plant response rating (goosegrass; 250 g ai/ha): 100
Plant response rating (panicum, fall [7]; 16 g ai/ha): 10
Plant response rating (panicum, fall [7]; 31 g ai/ha): 20
Plant response rating (panicum, fall [7]; 62 g ai/ha): 20
Plant response rating (panicum, fall [7]; 125 g ai/ha): 20
Plant response rating (panicum, fall [7]; 250 g ai/ha): 30
Plant response rating (dayflower, VA; 16 g ai/ha): 5
Plant response rating (dayflower, VA; 31 g ai/ha): 15
Plant response rating (dayflower, VA; 62 g ai/ha): 25
Plant response rating (dayflower, VA; 125 g ai/ha): 65
Plant response rating (dayflower, VA; 250 g ai/ha): 80
Plant response rating (morningglory; 16 g ai/ha): 10
Plant response rating (morningglory; 31 g ai/ha): 40
Plant response rating (morningglory; 125 g ai/ha): 60
Plant response rating (morningglory; 250 g ai/ha): 100
Plant response rating (crabgrass, Brazilian [1]; 62 g ai/ha): 98
Plant response rating (crabgrass, Brazilian [1]; 125 g ai/ha): 98
Plant response rating (crabgrass, Brazilian [1]; 250 g ai/ha): 100
Plant response rating (johnsongrass; 16 g ai/ha): 10
Plant response rating (johnsongrass; 31 g ai/ha): 15
Plant response rating (johnsongrass; 62 g ai/ha): 40
Plant response rating (johnsongrass; 125 g ai/ha): 50
Plant response rating (johnsongrass; 250 g ai/ha): 60
Plant response rating (panicum, fall [2]; 16 g ai/ha): 15
Plant response rating (panicum, fall [2]; 31 g ai/ha): 60
Plant response rating (panicum, fall [2]; 62 g ai/ha): 80
Plant response rating (panicum, fall [2]; 125 g ai/ha): 100
Plant response rating (panicum, fall [2]; 250 g ai/ha): 100
Plant response rating (soybean; 16 g ai/ha): 40
Plant response rating (soybean; 31 g ai/ha): 40
Plant response rating (soybean; 62 g ai/ha): 50
Plant response rating (soybean; 125 g ai/ha): 50
Plant response rating (soybean; 250 g ai/ha): 65
Plant response rating (poinsettia, wild; 16 g ai/ha): 10
Plant response rating (poinsettia, wild; 31 g ai/ha): 30
Plant response rating (poinsettia, wild; 62 g ai/ha): 40
Plant response rating (poinsettia, wild; 125 g ai/ha): 40
Plant response rating (poinsettia, wild; 250 g ai/ha): 50
Plant response rating (arrowleaf sida [3]; 16 g ai/ha): 0
Plant response rating (arrowleaf sida [3]; 31 g ai/ha): 10
Plant response rating (arrowleaf sida [3]; 62 g ai/ha): 20
Plant response rating (arrowleaf sida [3]; 125 g ai/ha): 20
Plant response rating (arrowleaf sida [3]; 250 g ai/ha): 50
Plant response rating (sandbur; 16 g ai/ha): 10
Plant response rating (sandbur; 31 g ai/ha): 15
Plant response rating (sandbur; 62 g ai/ha): 15
Plant response rating (sandbur; 125 g ai/ha): 20
Plant response rating (sandbur; 250 g ai/ha): 20
Plant response rating (pigweed, palmer; 16 g ai/ha): 80
Plant response rating (pigweed, palmer; 62 g ai/ha): 98
Plant response rating (pigweed, palmer; 125 g ai/ha): 100
Plant response rating (pigweed, palmer; 250 g ai/ha): 100
Plant response rating (arrowleaf sida [8]; 16 g ai/ha): 30
Plant response rating (arrowleaf sida [8]; 31 g ai/ha): 40
Plant response rating (arrowleaf sida [8]; 62 g ai/ha): 50
Plant response rating (arrowleaf sida [8]; 125 g ai/ha): 70
Plant response rating (arrowleaf sida [8]; 250 g ai/ha): 85
Plant response rating (field bindweed; 16 g ai/ha): 40
Plant response rating (field bindweed; 31 g ai/ha): 55
Plant response rating (field bindweed; 62 g ai/ha): 65
Plant response rating (field bindweed; 125 g ai/ha): 65
Plant response rating (field bindweed; 250 g ai/ha): 75
Plant response rating (corn [4]; 16 g ai/ha): 0
Plant response rating (corn [4]; 31 g ai/ha): 0
Plant response rating (corn [4]; 62 g ai/ha): 10
Plant response rating (corn [4]; 125 g ai/ha): 25
Plant response rating (corn [4]; 250 g ai/ha): 35
Plant response rating (nightshade; 16 g ai/ha): 50
Plant response rating (nightshade; 62 g ai/ha): 75
Plant response rating (nightshade; 125 g ai/ha): 90
Plant response rating (nightshade; 250 g ai/ha): 95
Plant response rating (crabgrass, large; 16 g ai/ha): 60
Plant response rating (crabgrass, large; 31 g ai/ha): 75
Plant response rating (crabgrass, large; 62 g ai/ha): 80
Plant response rating (crabgrass, large; 125 g ai/ha): 95
Plant response rating (crabgrass, large; 250 g ai/ha): 100
